Data reported in EP0774458A1, “Substituted benzodicarboxylic acid diguanidines, process for their preparation, and their use as medicament or diagnostic agent” (HOECHST AKTIENGESELLSCHAFT, priority 1995, dated 1997).

Molecular target: T1, Na^+/H^+-Exchangers von Kaninchenerythrocyten (Oryctolagus cuniculus, UniProt P23791)
T1 construct: den Na^+-Influx in die Erythrocyten via Na^+/H^+-Austausch flammenphotometrisch bestimmen zu können; from tissue; host or cells: Erythrocytes in whole blood from the ear arteries of cholesterol-fed White New Zealand rabbits (Ivanovas)
T1 sequence (P23791 whole entry): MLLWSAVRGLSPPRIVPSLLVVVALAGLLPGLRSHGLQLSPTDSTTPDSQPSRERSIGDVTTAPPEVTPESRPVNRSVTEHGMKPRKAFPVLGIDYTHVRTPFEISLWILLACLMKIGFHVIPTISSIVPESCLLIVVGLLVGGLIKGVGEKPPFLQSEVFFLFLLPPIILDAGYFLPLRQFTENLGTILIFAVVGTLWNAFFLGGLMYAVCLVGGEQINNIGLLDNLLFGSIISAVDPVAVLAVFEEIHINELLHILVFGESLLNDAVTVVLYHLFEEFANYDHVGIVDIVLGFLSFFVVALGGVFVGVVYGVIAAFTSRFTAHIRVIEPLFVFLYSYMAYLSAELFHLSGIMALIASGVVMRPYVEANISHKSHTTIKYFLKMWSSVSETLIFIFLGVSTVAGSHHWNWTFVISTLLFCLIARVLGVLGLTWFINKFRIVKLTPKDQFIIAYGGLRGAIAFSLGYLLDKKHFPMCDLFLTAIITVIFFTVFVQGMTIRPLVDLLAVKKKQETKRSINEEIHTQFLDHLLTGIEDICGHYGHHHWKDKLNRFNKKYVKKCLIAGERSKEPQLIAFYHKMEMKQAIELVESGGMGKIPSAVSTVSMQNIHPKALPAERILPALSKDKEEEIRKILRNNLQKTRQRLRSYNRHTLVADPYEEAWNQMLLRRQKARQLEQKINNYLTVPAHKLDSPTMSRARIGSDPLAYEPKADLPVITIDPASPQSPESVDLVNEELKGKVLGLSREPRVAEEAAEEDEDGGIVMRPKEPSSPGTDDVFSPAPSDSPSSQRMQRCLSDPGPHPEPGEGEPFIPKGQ
Assay: Inhibition of the Na+/H+ exchanger of rabbit erythrocytes (amiloride-sensitive sodium influx, flame photometry)
Format: cell-based, Weiße Neuseeland-Kaninchen
Conditions: Inhibition des Na^+/H^+-Exchangers, hyperosmolares Salz-Sucrose-Medium, pH 7,4, 37°C
Excerpt: Inhibition des Na^+/H^+-Exchangers von Kaninchenerythrocyten Weiße Neuseeland-Kaninchen (Ivanovas) erhielten eine Standard-Diät mit 2 % Cholesterin für sechs Wochen, um den Na^+/H^+-Austausch zu aktivieren und so den Na^+-Influx in die Erythrocyten via Na^+/H^+-Austausch flammenphotometrisch bestimmen zu können. Das Blut wurde den Ohrarterien entnommen und durch 25 IE Kalium-Heparin ungerinnbar gemacht. Ein Teil jeder Probe wurde zur Doppelbestimmung des Hämatokrits durch Zentrifugieren benutzt. Aliquots von jeweils 100 µl dienten zur Messung des Na^+-Ausgangsgehalts der Erythrocyten.
Um den Amilorid-sensitiven Natrium-Influx zu bestimmen, wurden 100 µl jeder Blutprobe in jeweils 5 ml eines hyperosmolaren Salz-Sucrose-Mediums (mmol/l: 140 NaCl, 3 KCl, 150 Sucrose, 0,1 Ouabain, 20 Tris-hydroxymethylaminomethan) bei pH 7,4 und 37°C inkubiert. Die Erythrocyten wurden danach dreimal mit eiskalter MgCl2-Ouabain-Lösung (mmol/l: 112 MgCl2, 0,1 Ouabain) gewaschen und in 2,0 ml destilliertem Wasser hämolysiert. Der intrazelluläre Natriumgehalt wurde flammenphotometrisch bestimmt.
Der Na^+-Nettoinflux wurde aus der Differenz zwischen Natrium-Ausgangswerten und dem Natriumgehalt der Erythrocyten nach Inkubation errechnet. Der Amilorid-hemmbare Natrium-Influx ergab sich aus der Differenz des Natriumgehalts der Erythrocyten nach Inkubation mit und ohne Amilorid 3 x 10-4 mol/l. […]

NC(N)=NC(=O)c1cc(C(=O)N=C(N)N)c(Cl)c(-c2ccccc2)c1 [Beispiel 1, 4-Chlor-5-phenyl-isophthalsäure-diguanidid]
IC50: 900 µM
